Data as given in patent US20250295646A1, “METHODS OF USE OF T-TYPE CALCIUM CHANNEL MODULATORS” (Praxis Precision Medicines, Inc., priority 2022, published 2025).

Assays:
[1] = Phase 1 single ascending dose (Part A) pharmacokinetics of 20 mg tablet formulation 3; conditions: human, in vivo, oral, single 60 mg, geometric mean
Procedure: This was a 2-part, Phase 1 double blind, placebo controlled trial to assess the safety, tolerability, pharmacokinetics, and pharmacodynamics (including the KSS, the KDT, the SQSQ and 24-hour EEG recordings), of single, ascending (Part A: 20, 40, and 60 mg) and multiple, ascending (Part B: 20 and 40 mg for 8 days) doses of the 20 mg tablet (formulation 3) in healthy participants. […] Variability in Cmax and AUC increased with increasing dose following a single oral dose of the 20 mg tablet formulation (formulation 3) (FIG. 16).

[2] = test system: adult patients with essential tremor; experiment: Example 16: Clinical Global Impression (CGI-I, CGI-S); type: in vivo, human; conditions: for participants with CGI-I much improved / participants with CGI-I score reflecting no change in symptoms: Part B OLT
Text: Patients were scheduled for Safety Follow-up on Day 70 (±1 day) in the clinic for the final clinical trial assessment.

[3] = test system: sigma band EEG power during NREM sleep; experiment: EEG/PSG: sigma band EEG power during NREM sleep; type: in vivo, human; conditions: for NREM Sigma Power Ratio from Baseline / NREM sigma power from baseline, LS Means: N = 10
Procedure: The effects of multiple doses of a wider dose range (Part A: 5, 10, 20 mg; Part B: 60, 80, 100, 120 mg) on sigma band EEG power during NREM sleep were also evaluated as part of the protocol described in Example 11, above. 24-hour EEG/PSG recordings were performed the day before dosing (baseline day) and after dosing on Days 4, 8, and 12 (for Part A) or Days 10, 17, 24, and 31 (for Part B). Part B also included placebo-treated participants for statistical comparisons.
The pharmacokinetic/pharmacodynamic (PKPD) effects of administration a compound of formula (II) on EEG were also evaluated. The recording of the NREM sigma absolute power was reported as a single summary value of a single night of sleep following each dose on pre-specified days (baseline and Days 4, 8 and 12 for Example 11, Part A and Days 10, 17, 24, and 31 for Part B, as set forth in Tables 22 and 23, above. Each NREM sigma absolute power value was paired with a model predicted average plasma concentration (Cave) that corresponded to the 24-hour EEG recording period on the respective study day. For example, if the period of EEG recording for an individual was from 6 am on Day 4 to 6 am on Day 5, then the corresponding Cave was calculated as the average of the individual's model-predicted concentrations (sampled every 30 minutes) from that same time period. The resulting PKPD data were analyzed in a mixed-effects modelling framework using NONlinear Mixed Effects Modeling (NONMEM) software. The change from baseline NREM sigma absolute power was specified as the outcome and the primary explanatory variable was the Cave of a compound of formula (II).
The population PK model was used to generate Cave for NREM sigma absolute power and concentrations for EO and EC gamma absolute power. For NREM sigma absolute power, the Cave was computed for the final day of each dose level over the EEG collection interval. For EO and EC gamma absolute power, concentrations at 4 hours post-dose and 23.75 hours post-dose were generated on the final day of each dose level. The final population PKPD models for NREM sigma absolute power and EO and EC gamma absolute power were then used to generate corresponding EEG responses.

[4] = test system: sigma band EEG power during NREM sleep; experiment: EEG/PSG: sigma band EEG power during NREM sleep; type: in vivo, human; conditions: 20 mg tablet and 40 mg tablet (FIG. 12)
[5] = Part B RWD (RWAS), Day 56, n 6, change from randomization baseline
[6] = Part B RWD (RWAS), Day 70, n 5, change from randomization baseline

## CC(C)(C)NC(=O)CN1CCC(CNC(=O)c2cc(F)cc(Cl)c2)CC1 [compound of formula (I), N-((1-(2-(tert-butylamino)-2-oxoethyl)piperidin-4-yl)methyl)-3-chloro-5-fluorobenzamide]
[1]; N = 6
  Cmax: ~130 ng/mL
[1]; read-out: AUC24
  AUC: ~1910 ng·h/mL
[2]; Part A (FAS), Day 7, n 6
  CGI-I Score 0 not assessed: 0 n (%)
  CGI-I Score 1 very much improved: 0 n (%)
  CGI-I Score 2 Much improved: 1 n (%)
  CGI-I Score 3 minimally improved: 1 (16.7) n (%)
  CGI-I Score 4 no change: 4 (66.7) n (%)
  CGI-I Score 5 minimally worse: 0 n (%)
  CGI-I Score 6 much worse: 0 n (%)
  CGI-I Score 7 very much worse: 0 n (%)
[2]; Part A (FAS), Day 14, n 6
  CGI-I Score 0 not assessed: 0 n (%)
  CGI-I Score 1 very much improved: 0 n (%)
  CGI-I Score 2 Much improved: 1 n (%)
  CGI-I Score 3 minimally improved: 5 (83.3) n (%)
  CGI-I Score 4 no change: 0 n (%)
  CGI-I Score 5 minimally worse: 0 n (%)
  CGI-I Score 6 much worse: 0 n (%)
  CGI-I Score 7 very much worse: 0 n (%)
[2]; Part A, Day 7
  participants with CGI-I score not changed relative to pre-dose baseline: 66.7%
[2]; Part A, Day 14
  participants with CGI score minimally improved: 83.3%
  participants with CGI score much improved: 16.7%
[2]; Part B OLT (FAS), Day 7, n 12
  CGI-I Score 0 not assessed: 1 (8.3) n (%)
  CGI-I Score 1 very much improved: 0 n (%)
  CGI-I Score 2 Much improved: 1 n (%)
  CGI-I Score 3 minimally improved: 5 (41.7) n (%)
  CGI-I Score 4 no change: 4 (33.3) n (%)
  CGI-I Score 5 minimally worse: 1 (8.3) n (%)
  CGI-I Score 6 much worse: 0 n (%)
  CGI-I Score 7 very much worse: 0 n (%)
[2]; Part B OLT (FAS), Day 21, n 12
  CGI-I Score 0 not assessed: 0 n (%)
  CGI-I Score 1 very much improved: 1 (8.3) n (%)
  CGI-I Score 2 Much improved: 1 n (%)
  CGI-I Score 3 minimally improved: 5 (41.7) n (%)
  CGI-I Score 4 no change: 5 (41.7) n (%)
  CGI-I Score 5 minimally worse: 0 n (%)
  CGI-I Score 6 much worse: 0 n (%)
  CGI-I Score 7 very much worse: 0 n (%)
[2]; Part B OLT (FAS), Day 42, n 11
  CGI-I Score 0 not assessed: 0 n (%)
  CGI-I Score 1 very much improved: 0 n (%)
  CGI-I Score 2 Much improved: 4 n (%)
  CGI-I Score 3 minimally improved: 4 (36.4) n (%)
  CGI-I Score 4 no change: 3 (27.3) n (%)
  CGI-I Score 5 minimally worse: 0 n (%)
  CGI-I Score 6 much worse: 0 n (%)
  CGI-I Score 7 very much worse: 0 n (%)
[2]; Day 7
  participants with CGI-I much improved: 8.3%
  participants with CGI-I score reflecting no change in symptoms: 33.3%
[2]; Day 42
  participants with CGI-I much improved: 36.4%
  participants with CGI-I score reflecting no change in symptoms: 27.3%
[2]; [5]
  CGI-I Score 0 not assessed: 0 n (%)
  CGI-I Score 1 very much improved: 0 n (%)
  CGI-I Score 2 Much improved: 0 n (%)
  CGI-I Score 3 minimally improved: 1 (16.7) n (%)
  CGI-I Score 4 no change: 5 (83.3) n (%)
  CGI-I Score 5 minimally worse: 0 n (%)
  CGI-I Score 6 much worse: 0 n (%)
  CGI-I Score 7 very much worse: 0 n (%)
[2]; [6]
  CGI-I Score 0 not assessed: 0 n (%)
  CGI-I Score 1 very much improved: 0 n (%)
  CGI-I Score 2 Much improved: 0 n (%)
  CGI-I Score 3 minimally improved: 0 n (%)
  CGI-I Score 4 no change: 4 (80.0) n (%)
  CGI-I Score 5 minimally worse: 1 (20.0) n (%)
  CGI-I Score 6 much worse: 0 n (%)
  CGI-I Score 7 very much worse: 0 n (%)

## CC(C)(C)NC(=O)CN1CCC(CNC(=O)c2cc(F)cc(Cl)c2)CC1.Cl [compound of formula (II), N-((1-(2-(tert-butylamino)-2-oxoethyl)piperidin-4-yl)methyl)-3-chloro-5-fluorobenzamide hydrochloride]
[3]; 5-120 mg, plateaued after Day 17 (80 mg)
  sigma band EEG power during NREM sleep, change from baseline: dose-dependent decrease
[3]; Day 10
  NREM sigma power, Formula (II) v. Placebo Difference: −0.597
  NREM sigma power, Formula (II) v. Placebo Ratio: 0.550
[3]; Day 10 (60 mg)
  NREM Sigma Power Ratio from Baseline: 0.581
  NREM sigma power from baseline, LS Means: −0.542
[3]; Day 17
  NREM sigma power, Formula (II) v. Placebo Difference: −0.697
  NREM sigma power, Formula (II) v. Placebo Ratio: 0.498
[3]; Day 17 (80 mg)
  NREM Sigma Power Ratio from Baseline: 0.646
  NREM sigma power from baseline, LS Means: −0.437
[3]; Day 24
  NREM sigma power, Formula (II) v. Placebo Difference: −0.729
  NREM sigma power, Formula (II) v. Placebo Ratio: 0.482
[3]; Day 24 (100 mg)
  NREM Sigma Power Ratio from Baseline: 0.498
  NREM sigma power from baseline, LS Means: −0.698
[3]; Day 31
  NREM sigma power, Formula (II) v. Placebo Difference: −0.679
  NREM sigma power, Formula (II) v. Placebo Ratio: 0.507
[3]; Day 31 (120 mg)
  NREM Sigma Power Ratio from Baseline: 0.574
  NREM sigma power from baseline, LS Means: −0.556
[4]
  NREM sigma band compared to placebo control: decrease
